In article PMC10046946, “Novel Phthalic-Based Anticancer Tyrosine Kinase Inhibitors: Design, Synthesis and Biological Activity” (Current Issues in Molecular Biology, 2023):
Several values for one entry are separate records, joined by “and”; a condition that tells them apart may be missing. Equal values may be shown once. Read-outs that look alike come from different tables or passages of the source. Values belong to the molecule of their own block, whether it stands above or below them.

Legend:
[1] = test system: K562 (chronic myelogenous leukemia); experiment: MTT cell proliferation assay, K562; type: cell-based; conditions: Homo sapiens, K562, 72 h of exposition, read-out: Anti-proliferative activity IC50, K562
Protocol: (§1) Tests to determine the effects of the synthesized compounds on cell viability and the half-maximal inhibitory concentration (IC50) were performed using the MTT assay, as described in our prior work.
(§2) The target compounds 5, 6, 8–12, 14, 15, 17–22 and 24–26 were tested for antiproliferative activity against six cancer cell lines: K562 (chronic myelogenous leukemia), HL-60 (promyelocytic leukemia), MCF-7 (breast adenocarcinoma), HepG2 (human liver cancer), A549 (lung carcinoma) and OKP-GS (renal cell carcinoma). The RPMI 1788 cells (B lymphocyte, human) were used as a control to evaluate the system toxicity of the studied compounds to normal cells. Sorafenib, nilotinib and lapatinib were utilized as reference standards for comparison.

[2] = test system: HL-60 (promyelocytic leukemia); experiment: MTT cell proliferation assay, HL-60; type: cell-based; conditions: Homo sapiens, HL-60, 72 h of exposition, read-out: Anti-proliferative activity IC50, HL-60
Protocol: as §1, §2

[3] = test system: MCF-7 (breast adenocarcinoma); experiment: MTT cell proliferation assay, MCF-7; type: cell-based; conditions: Homo sapiens, MCF7, MCF-7, 72 h of exposition, read-out: Anti-proliferative activity IC50, MCF-7
Protocol: as §1, §2

[4] = test system: HepG2 (human liver cancer); experiment: MTT cell proliferation assay, HepG2; type: cell-based; conditions: HepG2, 72 h of exposition, read-out: Anti-proliferative activity IC50, HepG2
Protocol: as §1, §2

A549 (lung carcinoma) = experiment: MTT cell proliferation assay, A549; type: cell-based; conditions: Homo sapiens, A549, 72 h of exposition, read-out: Anti-proliferative activity IC50, A549
Protocol: as §1, §2

[5] = test system: OKP-GS (renal cell carcinoma); experiment: MTT cell proliferation assay, OKP-GS; type: cell-based; conditions: 72 h of exposition, read-out: Anti-proliferative activity IC50, OKP-GS
Protocol: as §1, §2

[6] = test system: RPMI 1788 cells (B lymphocyte, human); experiment: MTT cell proliferation assay, normal RPMI 1788 cells; type: cell-based; conditions: normal human lymphoblastoid cells RPMI 1788, 72 h of exposition, read-out: Anti-proliferative activity IC50, RPMI 1788
Protocol: as §1, §2

EGFR = target: T1, EGFR (Homo sapiens, UniProt P00533); experiment: ADP-Glo kinase assay, EGFR; type: biochemical
T1 construct: purchased Promega
T1 sequence (P00533 25-1210): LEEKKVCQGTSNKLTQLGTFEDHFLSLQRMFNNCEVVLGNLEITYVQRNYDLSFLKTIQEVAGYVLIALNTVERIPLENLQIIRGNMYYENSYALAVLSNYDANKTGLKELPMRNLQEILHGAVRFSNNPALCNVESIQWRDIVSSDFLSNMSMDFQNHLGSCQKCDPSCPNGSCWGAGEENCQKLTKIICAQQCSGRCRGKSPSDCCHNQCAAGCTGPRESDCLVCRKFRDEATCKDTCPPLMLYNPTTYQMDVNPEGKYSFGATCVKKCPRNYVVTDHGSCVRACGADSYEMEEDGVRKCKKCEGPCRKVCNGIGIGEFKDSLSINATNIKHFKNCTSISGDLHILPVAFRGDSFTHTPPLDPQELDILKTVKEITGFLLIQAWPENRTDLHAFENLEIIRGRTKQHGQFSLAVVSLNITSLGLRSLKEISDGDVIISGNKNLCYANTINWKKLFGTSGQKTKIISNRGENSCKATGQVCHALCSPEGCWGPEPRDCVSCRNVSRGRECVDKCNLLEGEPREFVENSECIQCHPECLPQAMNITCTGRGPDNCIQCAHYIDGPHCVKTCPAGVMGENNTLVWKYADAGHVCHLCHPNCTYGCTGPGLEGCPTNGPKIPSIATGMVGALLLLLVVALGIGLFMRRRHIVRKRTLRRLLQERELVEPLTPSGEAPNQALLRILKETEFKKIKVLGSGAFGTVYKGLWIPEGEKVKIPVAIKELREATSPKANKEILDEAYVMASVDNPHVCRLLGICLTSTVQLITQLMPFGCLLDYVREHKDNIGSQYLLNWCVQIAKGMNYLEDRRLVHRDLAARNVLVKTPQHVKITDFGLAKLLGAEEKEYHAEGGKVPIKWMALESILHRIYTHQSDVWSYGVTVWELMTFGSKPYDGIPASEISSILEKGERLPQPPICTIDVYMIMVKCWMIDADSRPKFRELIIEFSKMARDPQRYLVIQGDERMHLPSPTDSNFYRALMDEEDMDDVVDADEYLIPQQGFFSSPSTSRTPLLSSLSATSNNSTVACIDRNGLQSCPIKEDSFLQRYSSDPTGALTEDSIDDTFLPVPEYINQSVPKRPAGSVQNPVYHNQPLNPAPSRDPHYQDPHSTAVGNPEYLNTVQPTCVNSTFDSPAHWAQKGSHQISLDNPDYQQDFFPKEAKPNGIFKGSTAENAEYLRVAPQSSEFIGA

HER2 = target: T2, HER2 (Homo sapiens, UniProt P04626); experiment: ADP-Glo kinase assay, HER2; type: biochemical
T2 construct: purchased Promega
Protocol: (§3) The ADP-Glo kinase assay (Promega, Madison, WI, USA) was used to screen compounds 5, 8–10, 14, 17, 19 and 24 for the tyrosine kinase (Kinase Selectivity Profiling System TK-1, Promega, Madison, WI, USA) and serine/threonine kinase (Kinase Selectivity Profiling System Other/CK-1, Promega, Madison, WI, USA) inhibition effects according to the manufacturer’s technical manual. The luminescence data were analyzed as described in our prior work.
(§4) The selectivity of the potential kinase inhibitor against a specific protein kinase or a specific family of kinases was investigated using the Kinase Selectivity Profiling System TK-1, Other/CK-1 and ADP-Glo™ Kinase assay kit (Promega, Madison, WI, USA).

HER4 = target: T3, HER4 (Homo sapiens, UniProt Q15303); experiment: ADP-Glo kinase assay, HER4; type: biochemical
T3 construct: purchased Promega
T3 sequence (Q15303 26-1308): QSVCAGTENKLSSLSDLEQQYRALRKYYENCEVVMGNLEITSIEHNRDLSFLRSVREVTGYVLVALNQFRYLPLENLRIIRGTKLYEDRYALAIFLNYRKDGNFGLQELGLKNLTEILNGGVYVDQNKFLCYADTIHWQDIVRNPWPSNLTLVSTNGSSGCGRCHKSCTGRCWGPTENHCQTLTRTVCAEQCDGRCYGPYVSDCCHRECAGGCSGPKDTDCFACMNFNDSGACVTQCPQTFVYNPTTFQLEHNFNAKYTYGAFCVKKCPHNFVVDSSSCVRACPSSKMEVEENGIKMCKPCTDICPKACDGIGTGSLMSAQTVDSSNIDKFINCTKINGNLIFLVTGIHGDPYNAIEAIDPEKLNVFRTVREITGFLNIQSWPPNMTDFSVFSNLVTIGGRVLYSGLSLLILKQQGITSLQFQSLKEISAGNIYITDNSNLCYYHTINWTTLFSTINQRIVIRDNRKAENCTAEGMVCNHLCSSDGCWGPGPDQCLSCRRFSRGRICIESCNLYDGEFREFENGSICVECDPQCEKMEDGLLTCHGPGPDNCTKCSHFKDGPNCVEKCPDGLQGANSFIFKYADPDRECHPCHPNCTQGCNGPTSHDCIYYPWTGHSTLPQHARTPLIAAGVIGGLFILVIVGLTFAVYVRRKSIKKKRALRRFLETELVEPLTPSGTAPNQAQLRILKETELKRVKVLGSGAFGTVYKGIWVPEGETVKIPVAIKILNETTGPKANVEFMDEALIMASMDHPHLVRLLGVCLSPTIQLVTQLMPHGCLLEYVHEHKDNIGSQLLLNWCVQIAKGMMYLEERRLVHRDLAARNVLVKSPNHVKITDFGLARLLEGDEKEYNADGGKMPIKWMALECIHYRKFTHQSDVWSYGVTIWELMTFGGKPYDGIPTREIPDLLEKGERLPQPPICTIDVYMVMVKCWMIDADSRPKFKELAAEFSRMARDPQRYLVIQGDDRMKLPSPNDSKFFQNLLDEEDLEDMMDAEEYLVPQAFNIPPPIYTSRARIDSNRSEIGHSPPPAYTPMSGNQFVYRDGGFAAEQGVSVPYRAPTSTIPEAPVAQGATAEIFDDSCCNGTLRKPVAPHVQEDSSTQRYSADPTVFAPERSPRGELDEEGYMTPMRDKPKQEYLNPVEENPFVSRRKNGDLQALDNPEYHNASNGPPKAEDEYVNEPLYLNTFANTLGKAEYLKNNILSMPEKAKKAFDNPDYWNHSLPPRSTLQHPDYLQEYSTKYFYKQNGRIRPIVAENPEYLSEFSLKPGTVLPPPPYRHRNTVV
Protocol: as §3, §4

[7] = target: T4, IGF1R (insulin-like growth factor 1 receptor) (Homo sapiens, UniProt P08069); experiment: ADP-Glo kinase assay, IGF1R; type: biochemical
T4 construct: purchased Promega
T4 sequence (P08069 31-1367): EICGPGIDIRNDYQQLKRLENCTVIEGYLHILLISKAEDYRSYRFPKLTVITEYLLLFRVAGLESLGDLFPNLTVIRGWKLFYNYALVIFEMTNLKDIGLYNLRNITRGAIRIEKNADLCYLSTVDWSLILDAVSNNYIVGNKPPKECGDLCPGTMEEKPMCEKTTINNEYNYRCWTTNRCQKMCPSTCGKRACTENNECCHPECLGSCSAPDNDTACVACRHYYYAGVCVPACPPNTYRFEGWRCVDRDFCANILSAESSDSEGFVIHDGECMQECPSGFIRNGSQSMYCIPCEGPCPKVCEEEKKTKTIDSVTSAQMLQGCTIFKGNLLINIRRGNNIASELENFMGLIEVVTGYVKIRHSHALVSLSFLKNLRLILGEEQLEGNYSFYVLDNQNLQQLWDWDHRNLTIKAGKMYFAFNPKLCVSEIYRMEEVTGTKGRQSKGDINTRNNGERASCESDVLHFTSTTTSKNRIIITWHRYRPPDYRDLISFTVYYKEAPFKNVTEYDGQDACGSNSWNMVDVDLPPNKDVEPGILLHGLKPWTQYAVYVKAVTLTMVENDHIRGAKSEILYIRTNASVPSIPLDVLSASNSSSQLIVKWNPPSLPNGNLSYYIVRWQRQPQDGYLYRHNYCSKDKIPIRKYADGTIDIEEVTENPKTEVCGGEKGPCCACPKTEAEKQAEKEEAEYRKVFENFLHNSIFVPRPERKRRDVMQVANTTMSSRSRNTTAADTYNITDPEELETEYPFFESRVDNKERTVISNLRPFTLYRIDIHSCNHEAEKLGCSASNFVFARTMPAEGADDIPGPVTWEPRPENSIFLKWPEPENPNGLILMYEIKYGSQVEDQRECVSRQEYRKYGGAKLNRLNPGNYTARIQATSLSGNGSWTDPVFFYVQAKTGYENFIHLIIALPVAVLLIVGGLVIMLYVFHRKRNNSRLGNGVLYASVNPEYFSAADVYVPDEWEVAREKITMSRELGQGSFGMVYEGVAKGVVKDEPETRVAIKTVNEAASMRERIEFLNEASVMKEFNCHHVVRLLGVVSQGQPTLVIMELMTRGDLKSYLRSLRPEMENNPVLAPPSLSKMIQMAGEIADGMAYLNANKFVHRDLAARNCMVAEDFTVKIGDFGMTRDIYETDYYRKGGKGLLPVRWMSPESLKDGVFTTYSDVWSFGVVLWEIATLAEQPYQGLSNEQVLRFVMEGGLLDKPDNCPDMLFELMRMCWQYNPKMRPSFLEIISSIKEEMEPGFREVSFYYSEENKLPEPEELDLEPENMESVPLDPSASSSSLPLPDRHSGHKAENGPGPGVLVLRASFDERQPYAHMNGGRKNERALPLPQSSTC
Protocol: as §3, §4

InsR (insulin receptor) = target: T5, InsR (insulin receptor) (Homo sapiens, UniProt P06213); experiment: ADP-Glo kinase assay, InsR; type: biochemical
T5 construct: purchased Promega
Protocol: as §3, §4

KDR (VEGFR-2) = target: T6, KDR (VEGFR-2) (Homo sapiens, UniProt P35968); experiment: ADP-Glo kinase assay, KDR; type: biochemical
T6 construct: purchased Promega

PDGFRα = target: T7, PDGFRα (Homo sapiens, UniProt P16234); experiment: ADP-Glo kinase assay, PDGFRα; type: biochemical
T7 construct: purchased Promega
Protocol: as §3, §4

PDGFRβ = target: T8, PDGFRβ (Homo sapiens, UniProt P09619); experiment: ADP-Glo kinase assay, PDGFRβ; type: biochemical
T8 construct: purchased Promega
T8 sequence (P09619 33-1106): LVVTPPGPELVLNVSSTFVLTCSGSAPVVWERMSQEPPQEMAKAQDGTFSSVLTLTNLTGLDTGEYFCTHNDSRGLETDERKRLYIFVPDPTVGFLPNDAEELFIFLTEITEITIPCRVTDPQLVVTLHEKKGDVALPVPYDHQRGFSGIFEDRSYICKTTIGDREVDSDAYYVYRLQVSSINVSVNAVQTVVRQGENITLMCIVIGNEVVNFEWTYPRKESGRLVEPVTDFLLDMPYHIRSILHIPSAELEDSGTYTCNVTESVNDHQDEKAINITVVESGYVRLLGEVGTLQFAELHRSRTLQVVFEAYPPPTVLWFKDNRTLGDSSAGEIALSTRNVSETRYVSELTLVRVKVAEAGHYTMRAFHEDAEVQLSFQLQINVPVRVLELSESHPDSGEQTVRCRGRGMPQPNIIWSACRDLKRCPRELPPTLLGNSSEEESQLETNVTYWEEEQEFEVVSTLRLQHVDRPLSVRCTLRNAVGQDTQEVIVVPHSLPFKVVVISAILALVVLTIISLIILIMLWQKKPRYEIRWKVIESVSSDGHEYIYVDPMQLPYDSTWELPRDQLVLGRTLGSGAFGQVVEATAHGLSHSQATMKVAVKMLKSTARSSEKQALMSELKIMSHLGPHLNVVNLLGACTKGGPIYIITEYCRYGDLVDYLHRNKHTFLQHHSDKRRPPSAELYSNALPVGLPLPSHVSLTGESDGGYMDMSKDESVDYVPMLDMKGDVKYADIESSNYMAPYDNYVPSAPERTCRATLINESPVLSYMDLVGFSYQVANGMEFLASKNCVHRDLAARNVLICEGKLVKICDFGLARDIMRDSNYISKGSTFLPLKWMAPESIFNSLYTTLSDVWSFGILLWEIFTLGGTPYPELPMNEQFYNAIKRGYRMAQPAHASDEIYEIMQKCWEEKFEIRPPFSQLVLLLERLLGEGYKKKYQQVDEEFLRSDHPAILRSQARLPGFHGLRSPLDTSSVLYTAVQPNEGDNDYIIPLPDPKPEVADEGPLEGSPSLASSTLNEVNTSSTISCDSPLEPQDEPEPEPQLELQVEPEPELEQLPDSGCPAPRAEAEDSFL
Protocol: as §3, §4

Aurora A = target: T9, Aurora A (Homo sapiens, UniProt O14965); experiment: ADP-Glo kinase assay, Aurora A; type: biochemical
T9 construct: purchased Promega
T9 sequence (O14965 1-403): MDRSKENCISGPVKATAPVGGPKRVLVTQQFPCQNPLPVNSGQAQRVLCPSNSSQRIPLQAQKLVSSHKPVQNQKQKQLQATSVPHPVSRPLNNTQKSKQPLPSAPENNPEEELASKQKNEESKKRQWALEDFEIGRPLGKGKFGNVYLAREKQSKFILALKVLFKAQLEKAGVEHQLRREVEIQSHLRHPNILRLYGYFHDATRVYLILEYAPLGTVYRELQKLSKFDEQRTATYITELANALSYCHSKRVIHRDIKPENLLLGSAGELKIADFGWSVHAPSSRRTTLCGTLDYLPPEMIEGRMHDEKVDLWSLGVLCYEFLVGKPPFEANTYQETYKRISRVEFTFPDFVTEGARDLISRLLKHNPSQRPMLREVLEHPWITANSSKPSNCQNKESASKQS
Protocol: as §3, §4

Aurora B = target: T10, Aurora B (Homo sapiens, UniProt Q96GD4); experiment: ADP-Glo kinase assay, Aurora B; type: biochemical
T10 construct: purchased Promega
Protocol: as §3, §4

K562 cells [8] = experiment: Cell cycle analysis (propidium iodide, flow cytometry); type: cell-based; conditions: 48 h
Protocol: Tumor cells were seeded on a 6-well plate at a density of 400,000 per well for K562. Test compounds 5, 14 and 15 were added at concentrations of 1, 5 and 10 μM in duplicate for 48 h. The methodology and analysis of the obtained data were performed as described in our prior work.
As shown above, compounds 5, 14 and 15 had significant antiproliferative activities, which is why their influences on the cell cycle and apoptosis level were determined, with the aim of understanding whether these effects are cytostatic or cytotoxic. In the cell cycle experiments, K562 cells were used. […] For the determination of changes in the distribution of cells in the phases of the cell cycle, the widely employed method of staining the cells with propidium iodide was used.

K562 cells [9] = experiment: Annexin V-FITC/PI apoptosis assay; type: cell-based; conditions: 48 h
Protocol: K562 tumor cells were plated on a 6-well plate at a density of 400,000 per well. Test compounds 5, 14 and 15 were added at concentrations of 1, 5 and 10 μM in duplicate for 48 h. The methodology and analysis of the obtained data were performed as described in our prior work.
The effects of compounds 5, 14 and 15 on cell apoptosis were examined using the Annexin V-FITC Kit (Beckman Coulter, Brea, CA, USA) according to the protocols provided. The Annexin V-FITC Kit is an apoptosis detection kit based on the binding properties of annexin V to phosphatidylserine (PS) and on the DNA intercalating capability of propidium iodide (PI). K562 cells were treated with compound 5, 14 and 15 at 1, 5 and 10 μM for 48 h, after which annexin V/PI binding was measured by flow cytometry.

K562 cell line = experiment: ROS determination (DCFH-DA, flow cytometry); type: cell-based; conditions: 48 h
Protocol: The redox status was assessed using the K562 cell line. […] Then, the cells were washed to remove the 2′,7′-dichlorodihydrofluorescein diacetate by centrifugation at 1000 rpm for 5 min. The measurements were conducted using a Cytomics FC500 Beckman Coulter flow cytometer (FL1 channel for DCF).

[10] = test system: cancer cell lines (K562, HL-60, MCF-7, HepG2, A549, OKP-GS); experiment: MTT cell proliferation assay, statements over the whole cell line panel; type: cell-based; conditions: statement over the cell line panel, studied concentration range up to 50 µM
Protocol: as §1, §2

IC50 [1]: 3.42 ± 0.78 µM
IC50 [2]: 7.04 ± 0.29 µM
IC50 [3]: 4.91 ± 1.27 µM
IC50 [4]: 7.84 ± 2.61 µM
IC50 ([4]; Homo sapiens, HepG2, 72 h): 8.84 µM
IC50 (A549 (lung carcinoma)): > 50 µM
IC50 [5]: 17.8 ± 2.13 µM
inhibition at 10 µM (EGFR): 0%
inhibition at 10 µM (HER2): 33%
inhibition at 10 µM (HER4): 0%
inhibition at 10 µM [7]: 0%
inhibition at 10 µM (InsR (insulin receptor)): 0%
inhibition at 10 µM (KDR (VEGFR-2)): 18%
inhibition at 10 µM (PDGFRα): 73%
inhibition at 10 µM (PDGFRβ): 18%
inhibition at 10 µM (Aurora A): 0%
inhibition at 10 µM (Aurora B): 0%
SMILES: Cc1cn(-c2cc(NC(=O)c3cccc(C(=O)Nc4cccc(C(F)(F)F)c4)c3)cc(C(F)(F)F)c2)cn1 [Compound 5, N1-(3-(4-methyl-1H-imidazol-1-yl)-5-(trifluoromethyl)phenyl)-N3-(3-(trifluoromethyl)phenyl)isophthalamide]
IC50 [6]: 2.86 ± 0.09 µM
Apoptosis, % (cell cycle analysis) (K562 cells [8]; K562, 1 µM): 14.56%
G1, % (K562 cells [8]; K562, 1 µM): 37.92%
G2/M, % (K562 cells [8]; K562, 1 µM): 45.08%
S, % (K562 cells [8]; K562, 1 µM): 17.0% and 17.01%
Apoptosis, % (cell cycle analysis) (K562 cells [8]; K562, 5 µM): 37.20%
G1, % (K562 cells [8]; K562, 5 µM): 31.77%
G2/M, % (K562 cells [8]; K562, 5 µM): 50.09%
S, % (K562 cells [8]; K562, 5 µM): 18.14%
Apoptosis, % (cell cycle analysis) (K562 cells [8]; K562, 10 µM): 53.50%
G1, % (K562 cells [8]; K562, 10 µM): 29.86%
G2/M, % (K562 cells [8]; K562, 10 µM): 38.0% and 38.08%
S, % (K562 cells [8]; K562, 10 µM): 32.05%
normal live cells (living cells) (K562 cells [9]; K562, 1 µM): 79.72%
early apoptotic cells (K562 cells [9]; K562, 5 µM): 29.07%
late apoptotic cells (K562 cells [9]; K562, 5 µM): 19.93%
normal live cells (living cells) (K562 cells [9]; K562, 5 µM): 48.87%
necrotic cells (K562 cells [9]; K562, 10 µM): 16.38%
normal live cells (living cells) (K562 cells [9]; K562, 10 µM): 38.66%
ROS Level, % of Control (K562 cell line; K562, 5 µM): 76.76 % of Control
ROS Level, % of Control (K562 cell line; K562, 10 µM): 64.66 % of Control
ROS Level, % of Control (K562 cell line; K562, 20 µM, 20 µM): 62.9 % of Control

IC50 [1]: > 50 µM
IC50 [2]: > 50 µM
IC50 [3]: 41.1 ± 5.06 µM
IC50 ([4]; Homo sapiens, HepG2, 72 h): > 50 µM
IC50 (A549 (lung carcinoma)): > 50 µM
IC50 [5]: > 50 µM
melting point: 258 to 260 °C
SMILES: CNC(=O)c1cc(Oc2ccc(NC(=O)c3cccc(C(=O)Nc4cccc(C(F)(F)F)c4)c3)cc2)ccn1 [Compound 6, N1-(4-((2-(methylcarbamoyl)pyridin-4-yl)oxy)phenyl)-N3-(3-(trifluoromethyl)phenyl)isophthalamide]
IC50 [6]: 13 ± 2.99 µM
Antiproliferative activity (IC50) over the studied cell cultures [10]: lack of sensitivity of the cancer cells in the studied concentration range
